pEC50, pIC50: −log10 of the molar value.
Key:
[1] = biological target: T1, human TREX2 (residues M44-A279) (Homo sapiens, UniProt Q9BQ50); assay: TREX2 Biochemical Assay (fluorescence, dsDNA substrate degradation); settings: 2.5 nM TREX2, 60 nM dsDNA substrate, 25 minutes at room temperature
T1 construct: human TREX2 (residues M44-A279, expressed in E. coli); His-TEV (His tag with TEV site) (N); made in house; host or cells: E. coli
T1 sequence (Q9BQ50 44-279 isoform Q9BQ50-1): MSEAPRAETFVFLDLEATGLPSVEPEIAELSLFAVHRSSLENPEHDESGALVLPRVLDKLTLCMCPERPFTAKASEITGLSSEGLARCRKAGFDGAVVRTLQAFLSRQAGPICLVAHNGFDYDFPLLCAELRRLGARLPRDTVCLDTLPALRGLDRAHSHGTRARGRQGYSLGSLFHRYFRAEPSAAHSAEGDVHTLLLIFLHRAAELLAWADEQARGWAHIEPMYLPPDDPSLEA
How it was run: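 Final conditions: 2.5 nM His-Tev-tagged TREX2 (E. coli-expressed), 60 nM fluorophore/quencher-labelled dsDNA, 50 mM Tris pH 7.4, 150 mM NaCl, 100 mM MgCl2, 1% DMSO; 10-point compound dose-response. Incubated 25 min at room temperature, then EDTA-quenched; fluorescence read at ex 570/em 615 nm. IC50 from four-parameter fit against pre-quenched and no-inhibitor controls.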

HCT116 dual cells = assay: HCT116 Cell Assay (Lucia luciferase reporter of Type I interferon induction); assay type: cell-based, human; settings: pBR322/BstNI DNA transfection, Lucia luciferase at 48 h, relative to 10 uM compound 39
How it was run: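 Cells were pretreated with compound for 4 h (≤0.1% DMSO), then transfected with pBR322/BstNI DNA (1.25 ug/mL; 100 ng/well) using Lipofectamine LTX. Secreted Lucia luciferase in the medium was read after 48 h at 37 °C. EC50 came from four-parameter fits normalised to no-inhibitor and 10 uM reference-inhibitor controls.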

full length human TREX1 = biological target: T2, full length human TREX1 (Homo sapiens, UniProt Q9NSU2); assay: TREX1 Biochemical Assay (fluorescence, dsDNA substrate degradation); settings: 150 pM TREX1, 60 nM dsDNA substrate, 25 minutes at room temperature
T2 construct: N-terminally His-Tev tagged full length human TREX1; His-TEV (His tag with TEV site) (N); made in house; host or cells: E. coli
T2 sequence (Q9NSU2 1-314): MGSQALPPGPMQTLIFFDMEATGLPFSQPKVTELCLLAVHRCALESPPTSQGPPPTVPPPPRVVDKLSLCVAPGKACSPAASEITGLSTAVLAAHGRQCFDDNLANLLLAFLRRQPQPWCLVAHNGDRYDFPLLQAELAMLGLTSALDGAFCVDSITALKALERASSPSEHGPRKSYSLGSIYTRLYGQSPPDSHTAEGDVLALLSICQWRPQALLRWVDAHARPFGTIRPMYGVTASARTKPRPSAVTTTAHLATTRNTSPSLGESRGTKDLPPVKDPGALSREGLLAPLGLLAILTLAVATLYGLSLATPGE
How it was run: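 N-terminally His-Tev-tagged TREX1 was expressed in E. coli; 150 pM enzyme was run with 60 nM TEX615/quencher-labelled dsDNA at pH 7.4 in 1.0% DMSO for 25 min at room temperature, then quenched with EDTA. Fluorescence at 615 nm (570 nm excitation) was normalised to pre-quenched and no-inhibitor controls, and IC50 came from four-parameter fits.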

[2] = Homo sapiens, HCT-116, 4 h pre-treatment

pIC50 [1]	pEC50 (HCT116 dual cells; [2])	pIC50 (full length human TREX1)	pEC50 (HCT116 dual cells; 4 h pre-treatment)	Structure (SMILES)
5.00 to 6.00	4.00 to 5.00	> 7.00		CN(Cc1ccccc1-c1ccccc1)c1nc(C(=O)Nc2cnoc2)c(O)c(=O)n1C [Example 18]
> 6.00	> 6.00	> 7.00		CN(c1nc(C(=O)Nc2cnoc2)c(O)c(=O)n1C)C(c1ccccn1)c1ccccc1Cl (single isomer, unassigned) [Example 56]
> 6.00		> 7.00	5.00 to 6.00	CN(c1nc(C(=O)Nc2cnoc2)c(O)c(=O)n1C)C(c1cccc(C#N)c1)c1ccccc1Cl (single isomer, unassigned) [Example 96]
> 6.00		> 7.00	> 6.00	CN(c1nc(C(=O)Nc2cnoc2)c(O)c(=O)n1C)C(c1ccccc1)c1ccccc1Cl (single isomer, unassigned) [Example 40]
> 6.00		> 7.00	> 6.00	CC(c1c(Cl)cccc1Cl)N(C)c1nc(C(=O)Nc2cnoc2)c(O)c(=O)n1C (single isomer, unassigned) [Example 71]
